The target in one assay is T1, NOX1 (Homo sapiens, UniProt Q9Y5S8).
T1 construct: endogenous in cells; host or cells: HT29
T1 sequence (Q9Y5S8 1-564): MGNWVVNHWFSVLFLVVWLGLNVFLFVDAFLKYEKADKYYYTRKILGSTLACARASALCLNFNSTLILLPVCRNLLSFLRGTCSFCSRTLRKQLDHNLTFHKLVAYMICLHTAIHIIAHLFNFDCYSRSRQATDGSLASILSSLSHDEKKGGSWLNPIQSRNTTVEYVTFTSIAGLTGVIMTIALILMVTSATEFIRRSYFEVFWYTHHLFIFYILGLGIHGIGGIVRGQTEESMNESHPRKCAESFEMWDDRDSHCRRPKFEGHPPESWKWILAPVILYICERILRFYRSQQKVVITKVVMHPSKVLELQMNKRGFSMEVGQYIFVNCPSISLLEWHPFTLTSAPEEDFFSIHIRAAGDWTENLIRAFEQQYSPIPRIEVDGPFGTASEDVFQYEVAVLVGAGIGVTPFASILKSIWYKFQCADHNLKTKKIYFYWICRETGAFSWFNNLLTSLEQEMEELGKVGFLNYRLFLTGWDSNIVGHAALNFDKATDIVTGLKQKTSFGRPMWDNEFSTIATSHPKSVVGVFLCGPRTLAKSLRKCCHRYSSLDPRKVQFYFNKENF
T1 sequence (P13498 2-195 partner limits assumed): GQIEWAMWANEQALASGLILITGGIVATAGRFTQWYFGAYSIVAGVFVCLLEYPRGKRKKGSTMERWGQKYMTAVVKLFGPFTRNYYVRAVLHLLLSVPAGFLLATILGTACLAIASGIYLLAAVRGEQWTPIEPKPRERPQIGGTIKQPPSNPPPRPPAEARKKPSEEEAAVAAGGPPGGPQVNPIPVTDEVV
Kind of assay: NOX1 HT29 cell-based assay (luminol/HRP luminescence). Particulars: HT-29, HT29 cells, DMSO = 0%, GKT137831 = 100%; for inhibition at 0.1 µM: 100 nM; for inhibition at 1 µM: 1000 nM. The protocol:
NOX1 HT29 Cell-Based Assay:
HT29 cells were cultured in T75 flask (Corning) and when 70-80% confluence was reached, cells were trypsinized, harvested in HBSS and counted. 1-2×10^5 cells were dispensed into individual wells in 70 μl final volume (96-well plates, white Corning). Cells were treated for 30-60 mins at 37° C. with 10 μl of GKT137831, DMSO and test compounds from their respective assay plates. This will correspond to a final concentration of 100 nM, 1000 nM GKT137831 or test compounds, and 0.1% DMSO. 20 μL of a mixture containing 100 μM luminol plus 0.4 units of HRP (final concentration) was added. Luminescence was quantified using a SpectraMax i3 Multiplate reader (Molecular Devices, Sunnyvale, Calif., USA). As designed, compounds that inhibit NOX1 activity will reduce cellular ROS production, leading to reduced probe-ROS interactions and reduced well luminescence. Compounds were tested in duplicate at a concentration of 100 nM and 1000 nM. DMSO and GKT137831 wells were applied as negative and positive controls, and the activities measured were set to 0% and 100%, respectively.

The target in another assay is T2, NOX2 (Homo sapiens, UniProt P04839).
T2 construct: HL-60 cells, rich in NOX2 expression; endogenous in cells; host or cells: DMSO-differentiated HL-60
T2 sequence (P04839 2-570 limits assumed): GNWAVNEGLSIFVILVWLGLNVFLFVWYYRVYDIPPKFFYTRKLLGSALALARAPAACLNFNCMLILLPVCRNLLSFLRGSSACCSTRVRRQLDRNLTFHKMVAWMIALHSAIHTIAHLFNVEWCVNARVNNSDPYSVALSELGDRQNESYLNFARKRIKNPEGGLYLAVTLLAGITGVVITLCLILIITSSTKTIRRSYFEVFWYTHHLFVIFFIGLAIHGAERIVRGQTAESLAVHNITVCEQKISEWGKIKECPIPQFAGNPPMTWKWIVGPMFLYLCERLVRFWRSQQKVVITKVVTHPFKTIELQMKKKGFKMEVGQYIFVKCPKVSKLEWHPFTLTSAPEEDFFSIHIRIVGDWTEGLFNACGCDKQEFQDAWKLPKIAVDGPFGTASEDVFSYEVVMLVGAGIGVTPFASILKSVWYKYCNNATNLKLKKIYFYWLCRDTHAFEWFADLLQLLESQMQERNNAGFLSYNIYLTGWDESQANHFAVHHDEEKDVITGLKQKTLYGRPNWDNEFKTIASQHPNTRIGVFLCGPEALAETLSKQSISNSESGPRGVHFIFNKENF
T2 sequence (P13498 2-195 partner limits assumed): T1 sequence (P13498 2-195 partner limits assumed)
The experiment in a line: NOX2 HL60 cell-based assay (PMA oxidative burst, L012 chemiluminescence). Particulars: DMSO-differentiated HL-60 cells, PMA-stimulated; for inhibition at 0.1 µM: HL-60, 100 nM; for inhibition at 1 µM: HL-60, 1000 nM. The protocol:
NOX2 HL60 Cell-Based Assay:
HL-60 cells, rich in NOX2 expression, was stimulated to undergo oxidative burst by phorbol myristate acetate (PMA). The ROS produced during this process was measured using the O2^−-specific chemiluminescent probe L012. L012 was added to DMSO-differentiated HL-60 cell suspensions to a final concentration of 100 μM. Then, 80 μL aliquots of cell suspension (2.5×10^5 cells) were transferred to individual wells of a 96-well plate. Test compounds were directly added to the wells at the specified concentrations. Following a 30-60 mins incubation at 37° C. in the dark, the oxidative burst was initiated by the addition of 10 ng/mL PMA, and the chemiluminescence signal was recorded every 5 min over a period of 60 mins in a SpectraMax i3 Multiplate reader (Molecular Devices, Sunnyvale, Calif., USA). • NOX4 HEK293 Overexpression Cell-Based Assay: […]

The target of another assay is T3, NOX4 (Homo sapiens, UniProt Q9NPH5).
T3 construct: expressed in transfected cells
T3 sequence (Q9NPH5 1-578): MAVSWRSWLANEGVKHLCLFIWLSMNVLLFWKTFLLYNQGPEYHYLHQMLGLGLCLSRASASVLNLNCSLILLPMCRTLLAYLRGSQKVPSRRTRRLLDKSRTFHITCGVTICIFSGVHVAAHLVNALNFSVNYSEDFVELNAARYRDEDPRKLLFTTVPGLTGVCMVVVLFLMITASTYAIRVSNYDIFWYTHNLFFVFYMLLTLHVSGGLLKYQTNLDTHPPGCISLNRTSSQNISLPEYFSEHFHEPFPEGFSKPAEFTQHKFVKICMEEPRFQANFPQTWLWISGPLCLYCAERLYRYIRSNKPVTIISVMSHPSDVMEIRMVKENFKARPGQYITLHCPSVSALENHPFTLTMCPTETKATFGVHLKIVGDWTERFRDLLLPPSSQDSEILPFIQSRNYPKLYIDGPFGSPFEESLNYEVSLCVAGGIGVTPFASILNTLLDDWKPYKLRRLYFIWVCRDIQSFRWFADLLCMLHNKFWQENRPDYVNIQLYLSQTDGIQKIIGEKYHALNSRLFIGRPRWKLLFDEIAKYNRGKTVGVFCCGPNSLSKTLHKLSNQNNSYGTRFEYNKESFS
T3 sequence (P13498 2-195 partner limits assumed): T1 sequence (P13498 2-195 partner limits assumed)
The experiment in a line: NOX4 HEK293 overexpression cell-based assay (Amplex Red H2O2). Particulars: HEK293 cells stably overexpressing NOX4, DMSO = 0, GKT137831 = 100; for inhibition at 0.1 µM: HEK293, 100 nM; for inhibition at 1 µM: HEK293, 1000 nM. The protocol:
Extracellular H2O2 measurement using Amplex™ Red Hydrogen Peroxide/Peroxidase Assay Kit (Catalog number: A22188; Invitrogen, Carlsbad, Calif., USA) was used to detect extracellular H2O2 release by HEK293 cells stably overexpressing NOX4. NOX4 clonal cells in log-phase growth were trypsinized, washed, and dispersed thoroughly. Following trypsinization, the cells (3×10^4) were resuspended in 100 μL of 1× Krebs-Ringer phosphate glucose (KRPG) buffer containing various concentrations of GKT137831 or test compounds and incubated at 37° C. for 30 min. Cells were mixed with 100 μL of Amplex Red reagent solution containing 50 μM Amplex Red and 0.1 units/mL of HRP in KRPG buffer; each assay condition was evaluated induplicate. The samples were incubated at 37° C. for 90 mins in the dark, and then centrifuged at 2,500 g for 5 mins. The supernatants were loaded to a 96 well plate, and then measured using a SpectraMax i3 Multiplate reader (Molecular Devices, Sunnyvale, Calif., USA) at 530 nm excitation and 590 nm emission respectively. DMSO and GKT137831 wells were applied as negative and positive controls, and the activities measured were set to 0 and 100, respectively.

Structures are written as SMILES. Where only a bound is given, the exact number is not on record here.

Turning to `COc1cc2[nH]c(-c3ccccc3Cl)c(O)c(=O)c2cc1OC` [Compound 9], the inhibition at 0.1 µM on NOX1 was at least 80%; on NOX2, at most 19%; on NOX4, 50 to 79%. In addition, the inhibition at 1 µM at NOX1 and at NOX2 was at least 80% in each case. Moreover, on NOX4 (1000 nM, 1 µM), the “% Inhibition NOX4” value is listed as “A (the percent of inhibition of NOX by the compounds is larger than or equals to 80%)”.

Turning to `COc1ccc(-c2[nH]c3ccsc3c(=O)c2O)cc1` [Compound 10], the results for the inhibition at 0.1 µM against NOX1 and against NOX2 were at least 80% and at most 19%, respectively. Besides, the inhibition at 1 µM against NOX1 and on NOX4 was at least 80% in each case. The “% Inhibition NOX2” value on NOX2 (1000 nM) is given as “C (the percent of inhibition of NOX by the compounds ranges from 2000 to 49%)”. Also, the “% Inhibition NOX4” value on NOX4 (100 nM) is on record as “C (the percent of inhibition of NOX by the compounds ranges from 2000 to 49%)”.

For the compound `COc1cc2[nH]c(-c3ccc(N4CCCC4)cc3)c(O)c(=O)c2cc1OC` [Compound 11], the inhibition at 0.1 µM against NOX1 and against NOX2 was at most 19% each time. The inhibition at 1 µM against NOX1 was 50 to 79%; against NOX2, at most 19%; at NOX4, at least 80%. Besides, at NOX4 (100 nM), the “% Inhibition NOX4” value is on record as “C (the percent of inhibition of NOX by the compounds ranges from 2000 to 49%)”.

Turning to `COc1cc2[nH]c(-c3ccc(C(F)(F)F)cc3)c(O)c(=O)c2cc1OC` [Compound 12], the inhibition at 0.1 µM against NOX1, at NOX2 and at NOX4 was at most 19% in each case. The values for the inhibition at 1 µM on NOX1, at NOX2 and on NOX4 were at least 80%, at most 19% and at least 80%, respectively.

In the case of `COc1cc2[nH]c(-c3ccc(F)cc3)c(O)c(=O)c2cc1OC` [Compound 13], the figures for the inhibition at 0.1 µM at NOX1 and at NOX2 were at least 80% and at most 19%, respectively. The inhibition at 1 µM against NOX1, against NOX2 and on NOX4 was at least 80% throughout. Moreover, the “% Inhibition NOX4” value on NOX4 (100 nM) is “C (the percent of inhibition of NOX by the compounds ranges from 2000 to 49%)”.

For the compound `COc1cc2[nH]c(C(C)(C)C)c(O)c(=O)c2cc1OC` [Compound 14], the inhibition at 0.1 µM at NOX1, against NOX2 and against NOX4 was at most 19% throughout. Moreover, the results for the inhibition at 1 µM against NOX1, on NOX2 and on NOX4 were at least 80%, at most 19% and at most 19%, respectively.

As for `COc1ccc(-c2[nH]c3cc(OC)c(OC)cc3c(=O)c2O)c(OC)c1` [Compound 15], the inhibition at 0.1 µM against NOX1 was at least 80%. The inhibition at 1 µM against NOX1, against NOX2 and against NOX4 was at least 80% in each case. Also, the “% Inhibition NOX2” value on NOX2 (100 nM) is recorded as “C (the percent of inhibition of NOX by the compounds ranges from 2000 to 49%)”. Also, the “% Inhibition NOX4” value on NOX4 (100 nM) was “C (the percent of inhibition of NOX by the compounds ranges from 2000 to 49%)”.

`COc1cc2[nH]c(-c3ccccc3C)c(O)c(=O)c2cc1OC` [Compound 16]: the inhibition at 0.1 µM at NOX1 is at least 80%; against NOX4, 50 to 79%. Besides, the inhibition at 1 µM on NOX1 was at least 80%; on NOX2, at least 80%; against NOX4, 50 to 79%. At NOX2 (100 nM), the “% Inhibition NOX2” value is reported as “C (the percent of inhibition of NOX by the compounds ranges from 2000 to 49%)”.

Take `COc1cc2[nH]c(-c3ccccc3C(F)(F)F)c(O)c(=O)c2cc1OC` [Compound 17]: the inhibition at 0.1 µM against NOX1 is at least 80%; at NOX4, 50 to 79%. For the same compound, the inhibition at 1 µM against NOX1 is at least 80%; at NOX4, 50 to 79%. For the same compound, the “% Inhibition NOX2” value is reported as “C (the percent of inhibition of NOX by the compounds ranges from 2000 to 49%)” on NOX2 (100 nM, 0.1 µM) and “B (the percent of inhibition of NOX by the compounds ranges from 50% o to 79% o)” at NOX2 (1000 nM, 1 µM).

(Values after patent US11661400B2, “NADPH oxidase inhibitors, pharmaceutical composition comprising the same, and application thereof” (TAIWANJ PHARMACEUTICALS CO., LTD., priority 2018, dated 2023).)
